Assays:
[1] = use of 4% HQ or 5% Vitamin C; cited from earlier work
[2] = Solubility of optional additional components in polyol solvents; format: physicochemical
Excerpt: Additional ingredients were chosen for their compatibility with (e.g., miscibility in) 1,3 propanediol, 1,2 propanediol, and/or 1,3 butanediol.

[3] = cream containing 10% MAP; cited from earlier work
[4] = Comparative studies: solubilization of prior-art ascorbic acid compositions; format: physicochemical; details: ascorbic acid together with urea in propylene glycol, butylene glycol and propanediol
Description: This example was reproduced.
All mixtures were heated to 85° C.

[5] = Solubilization of ascorbic acid with urea as co-solvent (recrystallization); format: physicochemical; details: in 1,3 propanediol
Excerpt: Maximum saturation level experiments
Next, concentrations of ascorbic acid beyond the aforementioned maximum concentration are solubilized, using urea as a co-solvent.

[6] = concentrations of 0.2%; cited from earlier work

For `O=C1O[C@H]([C@@H](O)CO)C(O)=C1O` [AA, L-ascorbic acid], the improvement [1] is given as 62.5%.

In the case of `COc1cc(CC(C(C)=O)C(C)=O)ccc1O` [Acetyl zingerone], the solubility ([2]; at 0.5-1% in 1,3 propanediol, 1,2 propanediol and 1,3 butanediol) is reported as “readily soluble”.

For `O=C(O)CCCCCCCC(=O)O` [AzA, Azelaic acid], the “concentration of AzA that can be solubilized” value ([2]; in 1,3 propanediol) was “up to 10%”, the “effect of hydroxyethyl urea on solubility of AzA” value ([2]; in 1,3 propanediol) was “slightly increased” and the “AzA solubilized together with ascorbic acid and urea” value ([2]; with 10% Ascorbic Acid (AA), 5% Urea in 1,3 propanediol solvent base) was 7.5%.

In the case of `Oc1ccc(O)cc1` [HQ, hydroquinone], the improvement [1] is listed as 93% and the side-effects [1] is listed as 68.7%.

In the case of `O=C1O[C@H]([C@@H](O)CO)C([O-])=C1OP(=O)([O-])[O-].O=C1O[C@H]([C@@H](O)CO)C([O-])=C1OP(=O)([O-])[O-].[Mg+2].[Mg+2].[Mg+2]` [MAP, magnesium ascorbyl phosphate], the “brightening/lightening of the appearance of the skin” value [3] is given as “effectively brighten/lighten the appearance of the skin”.

For `NC(N)=O` [U, urea], the “maximum concentrations soluble before urea itself starts to precipitate” value [4] was 20%, the “minimum amount U required to solubilize 20% AA” value [5] was ~10% and the “solubility of U (saturation reached before recrystallization of U)” value [5] was ~ 27.8%.

With `CC1(C)[C@@H](O[C@H]2O[C@H](C(=O)O)[C@@H](O)[C@H](O)[C@H]2O[C@@H]2O[C@H](C(=O)O)[C@@H](O)[C@H](O)[C@H]2O)CC[C@]2(C)[C@H]3C(=O)C=C4[C@@H]5C[C@@](C)(C(=O)O)CC[C@]5(C)CC[C@@]4(C)[C@]3(C)CC[C@@H]12` [glycyrrhizic acid, Glycyrrhizic acid] the solubility ([2]; in 1,3-propanediol) was “shows solubility”.

In the case of Madecassoside, the “reduction of erythema (skin redness)” value [6] is listed as “desirable ability to reduce erythema” and the solubility ([2]; at 0.2% in 1,3 propanediol, 1,2 propanediol and 1,3 butanediol) is listed as “soluble”.
